Read-outs that look alike come from different tables or passages of the source. Values belong to the compound of their own block, whether it stands above or below them.
Key:
cholesterol absorption = test: Inhibition of cholesterol absorption in rats fed 1% cholesterol:0.5% cholic acid diet; type: in vivo, male Sprague-Dawley rats; settings: po, 336 h, rat, 2 weeks; for response vs control in vivo at 0.03 %: dose .03% of the diet; for response vs control in vivo at 0.01 %: dose .01% of the diet
Method in brief: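 Male Sprague-Dawley rats (150-170 g) fed 1% cholesterol:0.5% cholic acid diet for 2 weeks with compound at 0.001, 0.003, 0.01 or 0.03% of diet. Serum cholesterol measured enzymatically; liver cholesterol from saponified large-lobe sample after petroleum ether extraction. Liver and serum sterol expressed as percent of untreated controls.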

[1] = target: T1, fatty acyl CoA: cholesterol acyl transferase (ACAT) (Rattus norvegicus, UniProt O70536); test: Inhibition of fatty acyl CoA:cholesterol acyl transferase (ACAT), rat adrenal enzyme; type: biochemical; settings: for IC50: several concentrations
T1 construct: The supernatant, containing the microsomal fraction, served as the source of the cholesterol-esterifying enzyme; from tissue; host or cells: rat adrenals, supernatant of 1,000 x g centrifugation containing the microsomal fraction
T1 sequence (O70536 1-545): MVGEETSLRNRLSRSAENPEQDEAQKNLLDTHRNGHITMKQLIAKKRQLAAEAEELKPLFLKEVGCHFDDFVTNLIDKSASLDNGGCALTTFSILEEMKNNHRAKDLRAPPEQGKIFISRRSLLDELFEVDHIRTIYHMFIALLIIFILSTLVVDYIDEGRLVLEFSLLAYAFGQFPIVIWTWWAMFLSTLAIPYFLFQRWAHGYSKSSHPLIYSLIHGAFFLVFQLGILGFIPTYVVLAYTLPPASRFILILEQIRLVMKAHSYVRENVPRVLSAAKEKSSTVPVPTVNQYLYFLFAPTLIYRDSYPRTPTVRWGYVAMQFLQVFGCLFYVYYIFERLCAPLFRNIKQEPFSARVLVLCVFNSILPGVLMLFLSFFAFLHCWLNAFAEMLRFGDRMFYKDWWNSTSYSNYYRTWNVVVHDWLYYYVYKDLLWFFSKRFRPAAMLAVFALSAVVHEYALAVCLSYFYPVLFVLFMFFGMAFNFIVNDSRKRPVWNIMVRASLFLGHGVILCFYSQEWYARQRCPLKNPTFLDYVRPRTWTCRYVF
Method in brief: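 Enzyme source was the microsomal supernatant of rat adrenal homogenate (0.2M potassium phosphate, pH 7.4) with BSA, preincubated with compound (5.2 μg/ml final for single-point) for 10 min at 37° C. Then [14C]oleoyl CoA added, 10 min at 37° C. TLC-separated cholesteryl ester was counted; percent inhibition versus control, IC50 from several concentrations.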

[2] = read-out: LS (liver sterol), percentage of control values
[3] = read-out: SS (serum sterol), percentage of control values
[4] = rat adrenal ACAT, final concentration 5.2 μg/ml, read-out: % Inhibition

IC50 ([1]; rat adrenal ACAT): 350 nM
SMILES: CCCCCCCN(Cc1ccc(C(C)C)cc1)C(=O)Nc1c(F)cc(F)cc1F [1-(n-Heptyl)-1-[4-(isopropyl)benzyl]-3-(2,4,6-trifluorophenyl)urea]
response vs control in vivo at 0.01 % (cholesterol absorption; [2]): 23%
response vs control in vivo at 0.01 % (cholesterol absorption; [3]): 40%

inhibition at 5.2 µg/mL [1, 4]: 92.5%
SMILES: CCCCCCCN(Cc1ccc(CCCC)cc1)C(=O)Nc1ccc(Cl)cc1C [1-(n-Heptyl)-1-(4-n-butylbenzyl)-3-(2-methyl-4-chlorophenyl)urea]
response vs control in vivo at 0.03 % (cholesterol absorption; [2]): 16%
response vs control in vivo at 0.03 % (cholesterol absorption; [3]): 35%

inhibition at 5.2 µg/mL [1, 4]: 94.3%
SMILES: CCCCc1ccc(CN(Cc2ccccc2)C(=O)Nc2ccc(Cl)cc2C)cc1 [1-Benzyl-1-(4-n-butylbenzyl)-3-(2-methyl-4-chlorophenyl)urea]
response vs control in vivo at 0.03 % (cholesterol absorption; [2]): 21%
response vs control in vivo at 0.03 % (cholesterol absorption; [3]): 70%

inhibition at 5.2 µg/mL [1, 4]: 95.8%
SMILES: CCCCOc1ccc(CN(Cc2ccccc2)C(=O)Nc2cc(C)c(C)cc2C)cc1 [1-Benzyl-1-(4-butyloxybenzyl)-3-(2,4,5-trimethylphenyl)urea]
response vs control in vivo at 0.03 % (cholesterol absorption; [2]): 12%
response vs control in vivo at 0.03 % (cholesterol absorption; [3]): 43%

IC50 ([1]; rat adrenal ACAT): 110 nM
SMILES: CCCCCCCN(Cc1ccc(CCCCCl)cc1)C(=O)Nc1c(C)cc(Cl)cc1C [1-(n-Heptyl)-1-[4-(4-chlorobutyl)benzyl]-3-(4-chloro-2,6-dimethylphenyl)urea]
response vs control in vivo at 0.03 % (cholesterol absorption; [2]): 18%
response vs control in vivo at 0.03 % (cholesterol absorption; [3]): 19%

inhibition at 5.2 µg/mL [1, 4]: 93.8%
SMILES: CCCCCCCN(Cc1ccco1)C(=O)Nc1cc(C)c(C)cc1C [1-(2-Furanylmethyl)-1-heptyl-3-(2,4,5-trimethylphenyl)urea]
response vs control in vivo at 0.03 % (cholesterol absorption; [2]): 38%
response vs control in vivo at 0.03 % (cholesterol absorption; [3]): 44%

inhibition at 5.2 µg/mL [1, 4]: 95.5%
SMILES: CCCCCOc1ccc(CN(Cc2ccc(CCCCC)cc2)C(=O)Nc2c(Cl)cc(Cl)cc2Cl)cc1 [1-(4-n-Pentylbenzyl)-1-(4-n-pentyloxybenzyl)-3-(2,4,6-trichlorophenyl)urea]
response vs control in vivo at 0.03 % (cholesterol absorption; [2]): 76%
response vs control in vivo at 0.03 % (cholesterol absorption; [3]): 100%

inhibition at 5.2 µg/mL [1, 4]: 92.8%
SMILES: CCCCc1ccc(CN(Cc2ccccc2)C(=O)Nc2c(C)cc(C)cc2C)cc1 [1-Benzyl-1-(4-n-butylbenzyl)-3-(2,4,6-trimethylphenyl)urea]
response vs control in vivo at 0.03 % (cholesterol absorption; [2]): 13%
response vs control in vivo at 0.03 % (cholesterol absorption; [3]): 53%

inhibition at 5.2 µg/mL [1, 4]: 92%
SMILES: O=C(Nc1ccc(Cl)cc1Cl)N(Cc1ccc(Cl)cc1)Cc1cccc2ccccc12 [1-(4-Chlorobenzyl)-1-(1-naphthylmethyl)-3-(2,4-dichlorophenyl)urea]
response vs control in vivo at 0.03 % (cholesterol absorption; [2]): 48%
response vs control in vivo at 0.03 % (cholesterol absorption; [3]): 50%

The remaining lines, values behind:

SMILES: Cc1cc(Cl)ccc1NC(=O)N(CCC(C)(C)C)Cc1cccs1 [3-(4-Chloro-2-methylphenyl)-1-(3,3-dimethylbutyl)-1-(2-thienylmethyl)urea]
response vs control in vivo at 0.03 % (cholesterol absorption; [2]): 64%
response vs control in vivo at 0.03 % (cholesterol absorption; [3]): 62%
inhibition at 5.2 µg/mL [1]: 90%

SMILES: CCCCCCCN(Cc1ccc(OCCCC)cc1)C(=O)Nc1ccc(Cl)cc1C(F)(F)F [1-(n-Heptyl)-(4-n-butoxybenzyl)-3-(2-trifluoromethyl-4-chlorophenyl)urea]
response vs control in vivo at 0.03 % (cholesterol absorption; [2]): 35%
response vs control in vivo at 0.03 % (cholesterol absorption; [3]): 59%
inhibition at 5.2 µg/mL [1, 4]: 89.4%

SMILES: CCCCOc1ccc(CN(Cc2cccs2)C(=O)Nc2cc(C)c(C)cc2C)cc1 [1-[(4-Butoxyphenyl)methyl]-1-(2-thienylmethyl)-3-(2,4,5-trimethylphenyl)urea]
response vs control in vivo at 0.03 % (cholesterol absorption; [2]): 16%
response vs control in vivo at 0.03 % (cholesterol absorption; [3]): 41%
inhibition at 5.2 µg/mL [1]: 90%

SMILES: CCCCCCCN(Cc1ccc(CCCC(=O)OCC)cc1)C(=O)Nc1c(C)cc(Cl)cc1C [1-(n-Heptyl)-1-[4-(3-carboethoxypropyl)benzyl]-3-(4-chloro-2,6-dimethylphenyl)urea]
response vs control in vivo at 0.01 % (cholesterol absorption; [2]): 65%
response vs control in vivo at 0.01 % (cholesterol absorption; [3]): 55%
IC50 ([1]; rat adrenal ACAT): 1080 nM

SMILES: CCCCCCCN(Cc1ccc(C(C)C)cc1)C(=O)Nc1c(C)cc(Cl)cc1C [1-(n-Heptyl)-1-[4-(isopropyl)benzyl]-3-(4-chloro-2,6-dimethylphenyl)urea]
response vs control in vivo at 0.01 % (cholesterol absorption; [2]): 20%
response vs control in vivo at 0.01 % (cholesterol absorption; [3]): 35%
IC50 ([1]; rat adrenal ACAT): 200 nM

SMILES: CC(C)(C)CCN(Cc1cccs1)C(=O)Nc1ccc(F)cc1F [3-(2,4-Difluorophenyl)-1-(3,3-dimethylbutyl)-1-(2-thienylmethyl)urea]
response vs control in vivo at 0.03 % (cholesterol absorption; [2]): 73%
response vs control in vivo at 0.03 % (cholesterol absorption; [3]): 66%
inhibition at 5.2 µg/mL [1]: 90%

SMILES: Cc1ccc(CCN(Cc2cccc(Cl)c2)C(=O)Nc2ccc(C)cc2C)cc1 [1-[2-(4-Methylphenyl)ethyl]-1-(3-chlorobenzyl)-3-(2,4-dimethylphenyl)urea]
response vs control in vivo at 0.03 % (cholesterol absorption; [2]): 20%
response vs control in vivo at 0.03 % (cholesterol absorption; [3]): 50%
inhibition at 5.2 µg/mL [1, 4]: 67.6%

SMILES: CCCCc1ccc(CN(CCCCCCO)C(=O)Nc2cc(C)c(C)cc2C)cc1 [1-[(4-Butylphenyl)methyl]-1-(6-hydroxyhexyl)-3-(2,4,5-trimethylphenyl)urea]
response vs control in vivo at 0.03 % (cholesterol absorption; [2]): 39%
response vs control in vivo at 0.03 % (cholesterol absorption; [3]): 57%
inhibition at 5.2 µg/mL [1]: 90%

SMILES: Cc1cc(Cl)cc(C)c1NC(=O)N(CCC(C)(C)C)Cc1ccc(CC(C)(C)C)cc1 [1-(3,3-Dimethylbutyl)-1-[4-(2,2-dimethylpropyl)benzyl]-3-(4-chloro-2,6-dimethylphenyl)urea]
response vs control in vivo at 0.03 % (cholesterol absorption; [2]): 11%
response vs control in vivo at 0.03 % (cholesterol absorption; [3]): 31%
inhibition at 5.2 µg/mL [1]: 90%

SMILES: CCCCCCCN(Cc1ccc(CCCC)cc1)C(=O)Nc1ccc(Cl)cc1Cl [1-(n-Heptyl)-1-(4-n-butylbenzyl)-3-(2,4-dichlorophenyl)urea]
response vs control in vivo at 0.03 % (cholesterol absorption; [2]): 50%
response vs control in vivo at 0.03 % (cholesterol absorption; [3]): 58%
inhibition at 5.2 µg/mL [1, 4]: 80%

SMILES: CCCCc1ccc(CN(CCCCC(C)(C)C)C(=O)Nc2ccc(Cl)cc2C)cc1 [1-(5,5-Dimethylhexyl)-1-[4-(n-butyl)benzyl]-3-(4-chloro-2-methylphenyl)urea]
response vs control in vivo at 0.03 % (cholesterol absorption; [2]): 34%
response vs control in vivo at 0.03 % (cholesterol absorption; [3]): 42%
inhibition at 5.2 µg/mL [1]: 90%

SMILES: CCCCc1ccc(CN(Cc2ccccc2)C(=O)Nc2ccc(C)cc2C)cc1 [1-Benzyl-1-(4-n-butylbenzyl)-3-(2,4-dimethylphenyl)urea]
response vs control in vivo at 0.03 % (cholesterol absorption; [2]): 20%
response vs control in vivo at 0.03 % (cholesterol absorption; [3]): 41%
inhibition at 5.2 µg/mL [1, 4]: 91.9%

SMILES: CCCCCCCOc1ccc(CN(CCCC)C(=O)Nc2c(C)cc(C)cc2C)cc1 [1-(n-Butyl)-1-(4-heptyloxybenzyl)-3-(2,4,6-trimethylphenyl)urea]
response vs control in vivo at 0.03 % (cholesterol absorption; [2]): 31%
response vs control in vivo at 0.03 % (cholesterol absorption; [3]): 66%
inhibition at 5.2 µg/mL [1]: 97.3%

SMILES: CCCCOc1ccc(CN(CCC(C)(C)C)C(=O)Nc2ccc(Cl)cc2C)cc1 [1-(3,3-Dimethylbutyl)-1-[4-(n-butoxy)benzyl]-3-(4-chloro-2-methylphenyl)urea]
response vs control in vivo at 0.03 % (cholesterol absorption; [2]): 22%
response vs control in vivo at 0.03 % (cholesterol absorption; [3]): 61%
inhibition at 5.2 µg/mL [1]: 90%

SMILES: CCCCc1ccc(CN(CCCCCCO)C(=O)Nc2c(Cl)cc(Cl)cc2Cl)cc1 [1-[(4-Butylphenyl)methyl]-1-(6-hydroxyhexyl)-3-(2,4,6-trichlorophenyl)urea]
response vs control in vivo at 0.03 % (cholesterol absorption; [2]): 32%
response vs control in vivo at 0.03 % (cholesterol absorption; [3]): 35%
inhibition at 5.2 µg/mL [1]: 90%

SMILES: CCCCc1ccc(CN(CCCCCCC#N)C(=O)Nc2ccc(Cl)cc2C)cc1 [1-[(4-Butylphenyl)methyl]-3-(4-chloro-2-methylphenyl)-1-(6-cyanohexyl)urea]
response vs control in vivo at 0.03 % (cholesterol absorption; [2]): 50%
response vs control in vivo at 0.03 % (cholesterol absorption; [3]): 48%
inhibition at 5.2 µg/mL [1]: 90%

SMILES: CCCCOc1ccc(CN(Cc2ccccc2)C(=O)Nc2ccc(C)cc2C)cc1 [1-Benzyl-1-(4-butyloxybenzyl)-3-(2,4-dimethylphenyl)urea]
response vs control in vivo at 0.03 % (cholesterol absorption; [2]): 15%
response vs control in vivo at 0.03 % (cholesterol absorption; [3]): 48%
inhibition at 5.2 µg/mL [1, 4]: 91.7%

SMILES: CCCCc1ccc(CN(CCCCCCCl)C(=O)Nc2cc(C)c(C)cc2C)cc1 [1-[(4-Butylphenyl)methyl]-1-(6-chlorohexyl)-3-(2,4,5-trimethylphenyl)urea]
response vs control in vivo at 0.03 % (cholesterol absorption; [2]): 15%
response vs control in vivo at 0.03 % (cholesterol absorption; [3]): 40%
inhibition at 5.2 µg/mL [1]: 90%

SMILES: CCCCN(Cc1ccccc1)C(=O)Nc1ccc(C)cc1C [1-Benzyl-1-(n-butyl)-3-(2,4-dimethylphenyl)urea]
response vs control in vivo at 0.03 % (cholesterol absorption; [2]): 65%
response vs control in vivo at 0.03 % (cholesterol absorption; [3]): 70%
inhibition at 5.2 µg/mL [1, 4]: 91.3%

SMILES: CCCCc1ccc(CN(CCCCC[Si](C)(C)C)C(=O)Nc2ccc(F)cc2F)cc1 [1-[(4-Butylphenyl)methyl]-3-(2,4-difluorophenyl)-1-[5-(trimethylsilyl)pentyl]urea]
response vs control in vivo at 0.03 % (cholesterol absorption; [2]): 57%
response vs control in vivo at 0.03 % (cholesterol absorption; [3]): 62%
inhibition at 5.2 µg/mL [1]: 90%

— US4623662A, “Antiatherosclerotic ureas and thioureas” (American Cyanamid Company, priority 1985, dated 1986)
